System: subjects with moderately to severely active RA who have an inadequate response to methotrexate (MTX)
Assay: Study 1 (add-on to MTX) - DAS28(CRP) scores
Type: in vivo, human
Design: key to DAS28(CRP) mean CFB (LOCF): change from baseline in DAS28(CRP) score (joints, CRP, 0-100 VAS)
Method: Double-blind, placebo-controlled add on study in subjects with moderately to severely active RA who have an inadequate response to methotrexate (MTX) (oral or parenteral).
595 subjects randomized to one of 6 dose regimens of Compound 1 (dosed as [Compound 1:HCl:3H2O]) (3 dose levels administered either once or twice daily) or placebo on top of each subject's stable dose of MTX.
Compound 1 (dosed as [Compound 1:HCl:3H2O]) is dosed for twelve weeks once daily (q.d.) (50 mg, 100 mg or 200 mg) or twice daily (b.i.d.) (25 mg, 50 mg or 100 mg); or placebo.
At Week 12, the subjects on placebo who have not achieved 20% improvement in swollen joint count (SJC66) and tender joint count (TJC68) are re-randomized automatically to receive Compound 1 (dosed as a [Compound 1:HCl:3H2O]) either at 100 mg q.d. or 50 mg b.i.d. doses in a blinded fashion; subjects on 50 mg q.d. who have not achieved 20% improvement in SJC66 and TJC68 will be assigned to 100 mg q.d. and subjects on 25 mg b.i.d. that have not achieved a 20% improvement in SJC66 and TJC68 will be assigned to 50 mg b.i.d. Subjects who switch treatment at week 12 are handled as if they discontinued at week 12 for the purpose of statistical analysis, whereas subjects in the other groups will maintain their randomized treatment until Week 24.
The (DAS28(CRP)) is a system developed and validated by the European League Against Rheumatism (EULAR) to measure the progress and improvement of rheumatoid arthritis and has been extensively validated (Wells et al., 2008). The DAS28(CRP) scoring includes a 28 tender and swollen joint count, CRP measurement from blood analysis, and a general health assessment on a visual analog scale (Fransen et al., 2003).
DAS28(CRP) values range from 2.0 to 10.0, and more particularly reflect the following status: • Remission: DAS28(CRP) ≤2.6 • Low Disease activity: 2.6 <DAS28(CRP) ≤3.2 • Moderate Disease Activity: 3.2 <DAS28(CRP) ≤5.1 • High Disease Activity: DAS28(CRP) >5.1
In practice, the DAS28(CRP) measurement involves the evaluation 28 different joints including in the measurement (proximal interphalangeal joints (10 joints), metacarpophalangeal joints (10), wrists (2), elbows (2), shoulders (2), and knees (2)). When looking at these joints, both the number of joints with tenderness upon touching and swelling are counted.
Secondly, C-reactive protein level is measured.
Finally, the patient makes a subjective assessment of disease activity during the preceding 7 days on a scale between 0 and 100, where 0 is “no activity” and 100 is “highest activity possible”.
The DAS28(CRP) score is then calculated as follows:
Firstly, the patient is asked to make a vertical mark on a 100 mm Visual Analog Scale (VAS) corresponding to their general health or global disease activity on a touch screen to measure the VAS value, which is used in the formula below.
Secondly, a swollen and tender joint examination is then performed on the patient. The swollen and tender joints are recorded. From this examination are obtained the total amount of swollen joints (SJC) and the total amount of tender joints (TJC), which are used in the formula below.
Thirdly, C-reactive protein (CRP) levels are measured.
Finally, the values obtained above (VAS, TJC28, SJC28, and CRP) are computed into the following Formula to obtain the DAS28(CRP) score.
DAS28(CRP)=0.56*√{square root over (TJC28)}+0.28√{square root over (SJC28)}+[…] ln(CRP+1)+0.014*VAS
The improvement (decreases) in the DAS28(CRP) scores for each patient group at weeks 1, 2, 4, 8 and 12 is shown in Table LXXXVII and Table LXXXVIII below, together with the Hommel-corrected p-value for the pairwise comparisons of each group with placebo.
The number of subjects (N) provided in each groups corresponds to the number of subjects starting the study in each group, and the DAS28 (CRP) data reported below corresponds to the responding subjects continuing for the entire 24 weeks on their initial treatment course.

[1] = 2 × 25 mg b.i.d., 12 weeks results
[2] = 2 × 25 mg b.i.d., 24 weeks results
[3] = 2 × 50 mg b.i.d., 12 weeks results
[4] = 2 × 50 mg b.i.d., 24 weeks results
[5] = 2 × 100 mg b.i.d., 12 weeks results
[6] = 2 × 100 mg b.i.d., 24 weeks results

O=C(Nc1nc2cccc(-c3ccc(CN4CCS(=O)(=O)CC4)cc3)n2n1)C1CC1 [Compound 1, cyclopropanecarboxylic acid {5-[4-(1,1-dioxo-thiomorpholin-4-ylmethyl)-phenyl]-[1,2,4]triazolo[1,5-a]pyridin-2-yl}-amide]
DAS28(CRP) mean CFB (LOCF) (2 × 25 mg b.i.d., week 2, 12 weeks results): −1.06 | DAS28(CRP) mean CFB (LOCF) (2 × 25 mg b.i.d., week 2, 24 weeks results): −1.06 | DAS28(CRP) mean CFB (LOCF) (2 × 25 mg b.i.d., week 4, 12 weeks results): −1.45 | DAS28(CRP) mean CFB (LOCF) (2 × 25 mg b.i.d., week 4, 24 weeks results): −1.45 | DAS28(CRP) mean CFB (LOCF) (2 × 25 mg b.i.d., week 8, 12 weeks results): −1.82 | DAS28(CRP) mean CFB (LOCF) (2 × 25 mg b.i.d., week 8, 24 weeks results): −1.82 | DAS28(CRP) mean CFB (LOCF) (2 × 25 mg b.i.d., week 12, 12 weeks results): −1.88 | DAS28(CRP) mean CFB (LOCF) (2 × 25 mg b.i.d., week 12, 24 weeks results): −1.88 | DAS28(CRP) mean CFB (LOCF) (2 × 25 mg b.i.d., week 16, 24 weeks results): −2.02 | DAS28(CRP) mean CFB (LOCF) (2 × 25 mg b.i.d., week 20, 24 weeks results): −2.07 | DAS28(CRP) mean CFB (LOCF) (2 × 25 mg b.i.d., week 24, 24 weeks results): −2.19 | % patients reaching low disease activity and/or remission at week 12 (LOCF) [1]: 28% | % patients reaching low disease activity at week 12 (LOCF) [1]: 13% | % patients reaching remission at week 12 (LOCF) [1]: 15% | % patients reaching low disease activity and/or remission at week 24 (LOCF) [2]: 40% | % patients reaching low disease activity at week 24 (LOCF) [2]: 16% | % patients reaching remission at week 24 (LOCF) [2]: 23% | DAS28(CRP) mean CFB (LOCF) (2 × 25 mg b.i.d., Week 1, 12 weeks results): −0.68 | DAS28(CRP) mean CFB (LOCF) (2 × 25 mg b.i.d., Week 1, 24 weeks results): −0.68 | DAS28(CRP) mean CFB (LOCF) (2 × 50 mg b.i.d., week 2, 12 weeks results): −1.22 | DAS28(CRP) mean CFB (LOCF) (2 × 50 mg b.i.d., week 2, 24 weeks results): −1.22 | DAS28(CRP) mean CFB (LOCF) (2 × 50 mg b.i.d., week 4, 12 weeks results): −1.65 | DAS28(CRP) mean CFB (LOCF) (2 × 50 mg b.i.d., week 4, 24 weeks results): −1.63 | DAS28(CRP) mean CFB (LOCF) (2 × 50 mg b.i.d., week 8, 12 weeks results): −1.93 | DAS28(CRP) mean CFB (LOCF) (2 × 50 mg b.i.d., week 8, 24 weeks results): −1.93 | DAS28(CRP) mean CFB (LOCF) (2 × 50 mg b.i.d., week 12, 12 weeks results): −2.10 | DAS28(CRP) mean CFB (LOCF) (2 × 50 mg b.i.d., week 12, 24 weeks results): −2.10 | DAS28(CRP) mean CFB (LOCF) (2 × 50 mg b.i.d., week 16, 24 weeks results): −2.37 | DAS28(CRP) mean CFB (LOCF) (2 × 50 mg b.i.d., week 20, 24 weeks results): −2.40 | DAS28(CRP) mean CFB (LOCF) (2 × 50 mg b.i.d., week 24, 24 weeks results): −2.40 | % patients reaching low disease activity and/or remission at week 12 (LOCF) [3]: 29% | % patients reaching low disease activity at week 12 (LOCF) [3]: 11% | % patients reaching remission at week 12 (LOCF) [3]: 18% | % patients reaching low disease activity and/or remission at week 24 (LOCF) [4]: 38% | % patients reaching low disease activity at week 24 (LOCF) [4]: 14% | % patients reaching remission at week 24 (LOCF) [4]: 24% | DAS28(CRP) mean CFB (LOCF) (2 × 50 mg b.i.d., Week 1, 12 weeks results): −0.84 | DAS28(CRP) mean CFB (LOCF) (2 × 50 mg b.i.d., Week 1, 24 weeks results): −0.84 | DAS28(CRP) mean CFB (LOCF) (2 × 100 mg b.i.d., week 2, 12 weeks results): −1.84 | DAS28(CRP) mean CFB (LOCF) (2 × 100 mg b.i.d., week 2, 24 weeks results): −1.84 | DAS28(CRP) mean CFB (LOCF) (2 × 100 mg b.i.d., week 4, 12 weeks results): −2.28 | DAS28(CRP) mean CFB (LOCF) (2 × 100 mg b.i.d., week 4, 24 weeks results): −2.24 | DAS28(CRP) mean CFB (LOCF) (2 × 100 mg b.i.d., week 8, 12 weeks results): −2.72 | DAS28(CRP) mean CFB (LOCF) (2 × 100 mg b.i.d., week 8, 24 weeks results): −2.72 | DAS28(CRP) mean CFB (LOCF) (2 × 100 mg b.i.d., week 12, 12 weeks results): −2.84 | DAS28(CRP) mean CFB (LOCF) (2 × 100 mg b.i.d., week 12, 24 weeks results): −2.84 | DAS28(CRP) mean CFB (LOCF) (2 × 100 mg b.i.d., week 16, 24 weeks results): −3.06 | DAS28(CRP) mean CFB (LOCF) (2 × 100 mg b.i.d., week 20, 24 weeks results): −3.02 | DAS28(CRP) mean CFB (LOCF) (2 × 100 mg b.i.d., week 24, 24 weeks results): −3.23 | % patients reaching low disease activity and/or remission at week 12 (LOCF) [5]: 50% | % patients reaching low disease activity at week 12 (LOCF) [5]: 14% | % patients reaching remission at week 12 (LOCF) [5]: 36% | % patients reaching low disease activity and/or remission at week 24 (LOCF) [6]: 64% | % patients reaching low disease activity at week 24 (LOCF) [6]: 24% | % patients reaching remission at week 24 (LOCF) [6]: 40% | DAS28(CRP) mean CFB (LOCF) (2 × 100 mg b.i.d., Week 1, 12 weeks results): −1.33 | DAS28(CRP) mean CFB (LOCF) (2 × 100 mg b.i.d., Week 1, 24 weeks results): −1.33
